Tests used:
Clostridium ljungdahlii [1] = test: Effect of CO feed rates on CO conversion (Example 5); type: cell-based
Method: Clostridium ljungdahlii was grown and maintained using only CO and N2 (feed gas) in a bioreactor (New Brunswick BioFlo I or IIc). During the experiment, rate of feed gas was altered to obtain desired culture conversions. Lower culture conversions were employed to provide excess dissolved CO to Clostridium ljungdahlii.
Low culture conversions of CO was used as s method to provide excess dissolved CO to the culture. For example, when a culture in a reactor can convert X amount of CO at a given agitation and at a given flow rate, the dissolved CO can be increased by increasing the flow rate so that culture conversions go below X.

Clostridium ljungdahlii [2] = test: Fermentation with low CO feed-gas (Example 3); type: cell-based; details: 9.5% CO/90.5% N2 feed gas, 534 ml/min; inoculum 0.38 g/l; within 90.6 hours after inoculation
Method: (§1) New Brunswick and CelliGen 310 reactor containing modified 1× ethanol medium were inoculated with 0.38 g/l of actively growing (in syngas) Clostridium ljungdahlii. Before inoculation, the rate of agitation of the reactor was set to 800 rpm. Gas and liquid samples taken from the reactor at every 1 to 4 hour intervals were analyzed for consumption or production of various gas components, broth acetic acid concentration, broth ethanol concentration and the optical density of the culture. Also the composition of the feed-gas was measured daily and the flow to the reactor was measured in real time by the mass flow controller regulating feed-gas to the reactor.
(§2) A CO composition feed gas of 9.5% CO/90.5% N2 was utilized and the flow was set to 534 ml/min. All through out the experiment the rate of feed gas to the reactor was not adjusted.
The method was utilized to keep the dissolved CO in the culture broth below 0.12 mmol/L at around 37 to 38° C. According to the Henry's Law, the maximum dissolved CO concentration that can be obtained by feeding a gas containing 9.5% is 0.079 mmol.
(§3) A Shimadzu GC-2014 gas chromatograph was used to measure the broth ethanol and acetic acid concentrations. SRI 8610c gas chromatograph was used to measure the components of the feed-gas.

[3] = tested on: Butyribacterium methylotrophicum; test: Fermentation with high CO feed-gas, head-space CO partial pressure control (Example 2); type: cell-based; details: 95% CO/5% N2 feed gas, head-space CO controlled; inoculum 0.92 g/l; within 68 hours after inoculation
Method: as §1, with “0.92” for “0.38”, “Butyribacterium methylotrophicum.” for “Clostridium ljungdahlii.”, “measured” for “measured in”, “reactor. High CO composition feed gas of 95% CO/5% N2 was utilized.” for “reactor.”
The method described in Example 1 was used to regulate the rate of gas supply to the reactor.
as §3

Clostridium ljungdahlii [4] = test: Effect of CO concentration on growth, bioreactor runs (Example 7); type: cell-based; details: for bacterial cell density over time: inoculum 3.8 g/L
Method: Clostridium ljungdahlii was grown in a bioreactor (New Brunswick BioFlo I or IIc). The following adjustments were made:
Conductivity of the culture was adjusted by adjusting the strength of the growth medium, for example concentration of all the components, except vitamin in the growth medium was increased by 1.5 times to increase the conductivity of the culture from approximately 7 mS to approximately 9.5 mS. […]
Initial gas flow rate of each experiment was kept unchanged throughout the experiment. Reactor parameters, when CO conversion values reach a plateau after a successful start-up, were used to calculate KLa for relevant conditions.
Syngas composition was 30% CO, 15% H2, 10% CO2 and 45% N2.

[5] = tested on: Butyribacterium methylotrophicum; test: Fermentation with low CO feed-gas (Example 4); type: cell-based; details: 9.5% CO/90.5% N2 feed gas, 534 ml/min; inoculum 0.86 g/l; within 44.4 hours after inoculation
Method: as §1, with “medium was” for “medium were”, “with 0.86” for “with 0.38”, “(in 5% CO/95% N2) Butyribacterium methylotrophicum. At the start of the experiment” for “(in syngas) Clostridium ljungdahlii. Before inoculation,”, “measured” for “measured in”
as §2
This method was utilized to keep the dissolved CO in the culture broth below 0.12 mmol/l at around 37 to 38° C. According to the Henry's law the maximum dissolved CO concentration that can be obtained by feeding a gas containing 9.5% is 0.079 mmol.
as §3

[6] = at 38° C.; cited from earlier work
Clostridium ljungdahlii [7] = test: Fermentation with high CO feed-gas, head-space CO partial pressure control (Example 1); type: cell-based; details: 95% CO/5% N2 feed gas, head-space CO controlled; inoculum 1.28 g/l; within 41.4 hours after inoculation
Method: as §1, with “310 bioreactors” for “310 reactor”, “with 1.28” for “with 0.38”, “measured” for “measured in”, “reactor. High CO composition feed gas of 95% CO/5% N2 was utilized.” for “reactor.”
The following method was used to regulate rate of gas supply to the reactor: X=(head space CO %/100)×(measured reactor pressure(psig)+atmospheric pressure/atmospheric pressure(14.7))
if x is 0.08 or below gas flow to the reactor was increased by 7.6% of the current mole value of gas flow rate to the reactor
if X is 0.12 or higher gas flow to the reactor was decreased by 7.6% of the current mole value of gas flow rate to the reactor
as §3

[8] = Dissolved CO by Henry's law calculation; type: physicochemical; details: feeding a gas containing 9.5% CO, 37 to 38° C.
Method: In order to calculate dissolved CO, the mass transfer coefficient (KLa) of the system needs to be determined. KLa value will depend on various factors, such as architecture of the reactor, superficial gas flow rate, un-aroused volume, temperature and agitation power. Therefore KLa values vary from reactor conditions to condition.
Henry's law:P=KHC • Henry's constant=KH=p/c (L(psi)/mol) • at 38° C., KH=17640 (L(psi)/mol)
In a CSTR containing CO consuming bacteria, the following equation may be used to estimate dissolved CO. • KLa((PCO(head space)/KH)−(PCO(liquid)/KH))=COU • COU=carbon monoxide uptake (mol/L/min) • KLa=mass transfer coefficient (min^−1) • (PCO(liquid)/KH)=dissolved CO (mol/L)
When dissolved CO=0 • KLa=COU/(PCO(head space)/KH) • KLa((PCO(head space)/KH)−(PCO(liquid)/KH))=COU • KH=L(psi)/mol

Clostridium ljungdahlii [9] = test: Inhibitory CO feed rates, four stage protocol (Example 6); type: cell-based; details: for CRT Average (cell retention time): from 18 hours after beginning to end of stage
Method: Clostridium ljungdahlii was grown in a bioreactor (New Brunswick BioFlo I or IIc).
To achieve a conductivity of 9 mS/cm, a medium was made using 1.5× of all components except for vitamins. A four stage protocol was used as follows:
Stage 1: A culture was grown up in a 2 L bioreactor using syngas. With a cell density of 2.9 g/L, the gas source was switched from syngas mixture to a CO/N2 mixture containing 95% CO and 5% N2.
Stage 2: At T=26 hrs, a CO conversion target was set at >90%.
Stage 3: At T=70 hrs, the CO conversion target was decreased from 90% to 85%.
Stage 4: At T=97 hrs, the CO conversion target was decreased from 85% to 80%.
Dissolved CO was calculated for each gas sample using representative KLa values for a particular gas flow rate. These values were then averaged to find a representative value for each stage. Pictures were taken throughout the experiment in order to qualitatively study the morphology change over time.
Average cell retention time (CRT) was calculated for the period of 18 hours after the beginning of each stage to the end of each stage.

[10] = Run #2: 1× growth medium, 35 ml/min syngas
[11] = Run #3: 1× growth medium, 40 ml/min syngas
[12] = Run #4: 1× growth medium, 45 ml/min syngas
[13] = Run #10: 1.5× growth medium, 20 ml/min syngas
[14] = Stage 2, average dissolved CO 0.04 mmol
[15] = Stage 3, average dissolved CO 0.12 mmol
[16] = Stage 4, average dissolved CO 0.29 mmol

Compound: [C-]#[O+] [CO, carbon monoxide]
- ethanol production, cell mass and morphology after recovery (Clostridium ljungdahlii [1]; CO conversions returned to approximately 80%): returned to healthy culture levels
- signs of inhibition (ethanol and acetic acid production, SCU, cell mass, cell morphology) (Clostridium ljungdahlii [1]; at approximately 80% CO conversions): didn't show signs of inhibition
- inhibition of culture (Clostridium ljungdahlii [1]; feed gas increased to maintain CO conversions below approximately 70%): inhibited
- cell mass (Clostridium ljungdahlii [2]): 6.21 g/L
- cell mass [3]: 7.88 g/L
- doubling time (Clostridium ljungdahlii [4]; Run #1: 1× growth medium, 25 ml/min syngas): about 20 hours
- initial lag period (Clostridium ljungdahlii [4]; Run #1: 1× growth medium, 25 ml/min syngas (30% CO)): about 20 hours
- doubling time (Clostridium ljungdahlii [4]; [10]): about 20 hours
- initial lag period (Clostridium ljungdahlii [4]; [10]): about 36 hours
- cell morphology (Clostridium ljungdahlii [4]; Run #2: 35 ml/min syngas, at about 51 hours after inoculation): elongated and curved
- doubling time (Clostridium ljungdahlii [4]; [11]): about 20 hours
- initial lag period (Clostridium ljungdahlii [4]; [11]): about 45 hours
- cell morphology (Clostridium ljungdahlii [4]; Run #3: 40 ml/min syngas, at about 51 hours after inoculation): elongated and curved
- doubling time (Clostridium ljungdahlii [4]; [12]): about 20 hours
- initial lag period (Clostridium ljungdahlii [4]; [12]): about 50 hours
- cell morphology (Clostridium ljungdahlii [4]; Run #4: 45 ml/min syngas, at about 55 hours after inoculation): elongated and curved
- lag period (culture continued to lag) (Clostridium ljungdahlii [4]; Run #5: 1× growth medium, 50 ml/min syngas): > 70 h
- doubling time (Clostridium ljungdahlii [4]; Run #6: 1× growth medium, 50 ml/min syngas, higher inoculum): about 20 hours
- initial lag period (Clostridium ljungdahlii [4]; Run #6: 1× growth medium, 50 ml/min syngas, higher inoculum (4.8 vs 3.8 g/L cells)): about 10 hours
- cell morphology (Clostridium ljungdahlii [4]; Run #6: 50 ml/min syngas, higher inoculum, at about 20 hours after inoculation): short and consistent in nature
- bacterial cell density over time (Clostridium ljungdahlii [4]; Run #7: 1.5× growth medium, 45 ml/min syngas): went down with time
- bacterial cell density over time (Clostridium ljungdahlii [4]; Run #8: 1.5× growth medium, 35 ml/min syngas): went down with time
- bacterial cell density over time (Clostridium ljungdahlii [4]; Run #9: 1.5× growth medium, 30 ml/min syngas): went down with time
- doubling time (Clostridium ljungdahlii [4]; [13]): 20 h
- bacterial cell density over time (Clostridium ljungdahlii [4]; [13]): went up with time
- cell mass [5]: 3.32 g/L
- Henry's constant KH [6]: 17640 L(psi)/mol
- cell mass (Clostridium ljungdahlii [7]): 8.24 g/L
- maximum dissolved CO concentration according to Henry's Law [8]: 0.079 mmol
- SCU Average (specific CO uptake) (Clostridium ljungdahlii [9]; [14]): 0.581 mmol/g/min
- CRT Average (cell retention time) (Clostridium ljungdahlii [9]; [14]): 23.74 h
- SCU Average (specific CO uptake) (Clostridium ljungdahlii [9]; [15]): 0.559 mmol/g/min
- CRT Average (cell retention time) (Clostridium ljungdahlii [9]; [15]): 31.89 h
- SCU Average (specific CO uptake) (Clostridium ljungdahlii [9]; [16]): 0.360 mmol/g/min
- CRT Average (cell retention time) (Clostridium ljungdahlii [9]; [16]): 75.92 h
- dissolved CO at which specific CO uptake proceeded on a downward trend (Clostridium ljungdahlii [9]; Stage 4, conversions coming down to 80%): around 0.2 mmol

Reference: patent publication US8980575B2, “Process to avoid inhibition of acetogens by CO” (Ineos Bio SA, priority 2012, dated 2015)
